Data as given in PubChem BioAssay AID248 (DTP/NCI, 2004).
“And” between values parts separate entries of the source, which are not always exact repeats. Equal values may be shown once. Inconclusive results and toxic doses are left out. Rule as the data show it: active = T/C of 150% or more; inactive = T/C below 125%.

Tested on: L1210 leukemia ip in BDF1 mice, survival T/C
Experiment: NCI In Vivo Anticancer Drug Screen. Data for tumor model L1210 Leukemia (intraperitoneal) in B6D2F1 (BDF1) mice
Details: endpoint: mean survival time, higher = longer survival
Procedure, shortened: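 Ratio derived from survival: compound-dosed mice over vehicle-dosed mice, all bearing a transplantable tumor.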

[1] = dose: 100.0 mg/kg/injection, schedule: Q04DX003 (ip), vehicle: Klucel (hydroxypropylcellulose) (HPC)
[2] = dose: 200.0 mg/kg/injection, schedule: Q04DX003 (ip), vehicle: Klucel (hydroxypropylcellulose) (HPC)
[3] = dose: 400.0 mg/kg/injection, schedule: Q04DX003 (ip), vehicle: Klucel (hydroxypropylcellulose) (HPC)
[4] = dose: 100.0 mg/kg/injection, schedule: Q01DX001 (ip), vehicle: saline with Tween-80
[5] = dose: 200.0 mg/kg/injection, schedule: Q01DX001 (ip), vehicle: saline with Tween-80
[6] = dose: 400.0 mg/kg/injection, schedule: Q01DX001 (ip), vehicle: saline with Tween-80
[7] = dose: 100.0 mg/kg/injection, schedule: Q04DX002 (ip), vehicle: Klucel (hydroxypropylcellulose) (HPC)
[8] = dose: 200.0 mg/kg/injection, schedule: Q04DX002 (ip), vehicle: Klucel (hydroxypropylcellulose) (HPC)
[9] = dose: 5.0 mg/kg/injection, schedule: Q01DX001 (ip), vehicle: saline
[10] = dose: 10.0 mg/kg/injection, schedule: Q01DX001 (ip), vehicle: saline
[11] = dose: 100.0 mg/kg/injection, schedule: Q04DX003 (ip), vehicle: saline
[12] = dose: 200.0 mg/kg/injection, schedule: Q04DX003 (ip), vehicle: saline
[13] = dose: 400.0 mg/kg/injection, schedule: Q04DX003 (ip), vehicle: saline
[14] = dose: 100.0 mg/kg/injection, schedule: Q01DX009 (ip), vehicle: saline with Tween-80
[15] = dose: 200.0 mg/kg/injection, schedule: Q01DX009 (ip), vehicle: saline with Tween-80

Measured: T/C

O=C1C=C(c2ccccc2)C2(c3ccccc3)OC2O1 (configuration not stated)
inactive: dose: 100.0 mg/kg/injection, schedule: Q01DX009 (ip), vehicle: Klucel (hydroxypropylcellulose) (HPC) 109 % of control | [1] 98 % of control | dose: 200.0 mg/kg/injection, schedule: Q01DX009 (ip), vehicle: Klucel (hydroxypropylcellulose) (HPC) 100 % of control | [2] 98 % of control | dose: 400.0 mg/kg/injection, schedule: Q01DX009 (ip), vehicle: Klucel (hydroxypropylcellulose) (HPC) 98 % of control | [3] 98 % of control

O=C(Nc1ccc(Br)cc1C(F)(F)F)C(F)(F)F
inactive: dose: 50.0 mg/kg/injection, schedule: Q04DX003 (ip), vehicle: Klucel (hydroxypropylcellulose) (HPC) 102 % of control | dose: 100.0 mg/kg/injection, schedule: Q01DX001 (ip), vehicle: Klucel (hydroxypropylcellulose) (HPC) 100 % of control | [1] 104 % of control | dose: 200.0 mg/kg/injection, schedule: Q01DX001 (ip), vehicle: Klucel (hydroxypropylcellulose) (HPC) 94 % of control | [2] 112 % of control | dose: 400.0 mg/kg/injection, schedule: Q01DX001 (ip), vehicle: Klucel (hydroxypropylcellulose) (HPC) 97 % of control | [3] 105 % of control

CCCCC(CC)CNC(C)=O (configuration not stated)
inactive: [1] 99 % of control | [2] 95 % of control

CC(COC(=O)c1ccccc1)NC1CCCC1 (configuration not stated)
inactive: dose: 75.0 mg/kg/injection, schedule: Q01DX001 (ip), vehicle: other 96 % of control | dose: 150.0 mg/kg/injection, schedule: Q01DX001 (ip), vehicle: other 108 % of control | dose: 300.0 mg/kg/injection, schedule: Q01DX001 (ip), vehicle: other 107 % of control

CC(C)P(=S)(OCc1ccccc1)C(C)C
inactive: [4] 99 % of control | [5] 98 % of control | [6] 105 % of control

Cc1ccc(S(=O)(=O)N/N=C/C(Br)=C(/Br)C(=O)O)cc1
inactive: dose: 6.25 mg/kg/injection, schedule: Q01DX009 (ip), vehicle: Klucel (hydroxypropylcellulose) (HPC) 106 % of control | dose: 12.5 mg/kg/injection, schedule: Q01DX009 (ip), vehicle: Klucel (hydroxypropylcellulose) (HPC) 109 % of control | dose: 25.0 mg/kg/injection, schedule: Q01DX009 (ip), vehicle: Klucel (hydroxypropylcellulose) (HPC) 111 % of control | dose: 50.0 mg/kg/injection, schedule: Q01DX009 (ip), vehicle: Klucel (hydroxypropylcellulose) (HPC) 124 % of control

Cc1ccnc2c3c4c(cc12)c(C)cc(=O)n4CO3
inactive: dose: 75.0 mg/kg/injection, schedule: Q01DX001 (ip), vehicle: Klucel (hydroxypropylcellulose) (HPC) 104 % of control | dose: 150.0 mg/kg/injection, schedule: Q01DX001 (ip), vehicle: Klucel (hydroxypropylcellulose) (HPC) 95 % of control | dose: 150.0 mg/kg/injection, schedule: Q01DX009 (ip), vehicle: Klucel (hydroxypropylcellulose) (HPC) 114 % of control | dose: 300.0 mg/kg/injection, schedule: Q01DX001 (ip), vehicle: Klucel (hydroxypropylcellulose) (HPC) 98 % of control

Cc1cccc(NCC(=O)NN)c1
inactive: [7] 100 % of control | [8] 115 % of control

COc1ccc2nc3ccccc3c(NCCNCCO)c2c1
inactive: [9] 97 % of control | dose: 6.0 mg/kg/injection, schedule: Q01DX Z (ip), vehicle: carboxymethylcellulose (CMC) 98 % of control | dose: 9.0 mg/kg/injection, schedule: Q01DX Z (ip), vehicle: carboxymethylcellulose (CMC) 92 % of control | [10] 106 % of control | dose: 20.0 mg/kg/injection, schedule: Q01DX001 (ip), vehicle: saline 101 % of control | dose: 40.0 mg/kg/injection, schedule: Q01DX001 (ip), vehicle: saline 97 % of control | dose: 80.0 mg/kg/injection, schedule: Q01DX001 (ip), vehicle: saline 92 % of control

CCOC(=O)Nc1ccc(F)cc1OC
inactive: dose: 100.0 mg/kg/injection, schedule: Q04DX002 (ip), vehicle: other 107 % of control | dose: 200.0 mg/kg/injection, schedule: Q04DX002 (ip), vehicle: other 104 % of control | dose: 400.0 mg/kg/injection, schedule: Q04DX002 (ip), vehicle: other 96 % of control

CC(C)NCCC#N
inactive: [11] 104 % of control | [12] 111 % of control | [13] 108 % of control

N#CC1C2C=CC(CC2)C1C#N (configuration not stated) (tested in a mixture with another compound)
inactive: dose: 0.25 mg/kg/injection, schedule: Q01DX Z (ip), vehicle: carboxymethylcellulose (CMC) 95 % of control | dose: 0.5 mg/kg/injection, schedule: Q01DX Z (ip), vehicle: carboxymethylcellulose (CMC) 93 % of control | dose: 1.0 mg/kg/injection, schedule: Q01DX Z (ip), vehicle: carboxymethylcellulose (CMC) 95 % of control | dose: 2.0 mg/kg/injection, schedule: Q01DX Z (ip), vehicle: carboxymethylcellulose (CMC) 93 % of control | [9] 98 % of control | [10] 95 % of control

O=C1c2ccccc2-c2c(N=Cc3ccc4c(c3)OCO4)c(Br)cc(Br)c21
inactive: dose: 100.0 mg/kg/injection, schedule: Q01DX001 (ip), vehicle: other 93 % of control | dose: 200.0 mg/kg/injection, schedule: Q01DX001 (ip), vehicle: other 98 % of control | dose: 400.0 mg/kg/injection, schedule: Q01DX001 (ip), vehicle: other 95 % of control

O=C(NC1CCCC2C(NC(=O)c3ccccc3)CCCC12)c1ccccc1 (configuration not stated)
inactive: dose: 100.0 mg/kg/injection, schedule: Q01DX001 (ip), vehicle: saline 91 % of control | [14] 89 % of control | [11] 92 % of control | dose: 200.0 mg/kg/injection, schedule: Q01DX001 (ip), vehicle: saline 91 % of control | [15] 89 % of control | [12] 91 % of control | dose: 400.0 mg/kg/injection, schedule: Q01DX001 (ip), vehicle: saline 94 % of control | dose: 400.0 mg/kg/injection, schedule: Q01DX009 (ip), vehicle: saline with Tween-80 95 % of control | [13] 86 % of control

C=C(C)C1Cc2c(ccc3c2OC2COc4cc(OC)c(OC)cc4C2(O)C3=O)O1 (configuration not stated)
inactive: dose: 12.5 mg/kg/injection, schedule: Q01DX009 (ip), vehicle: carboxymethylcellulose (CMC) 107 % of control

O=C(Nc1ccc(I)cc1)Nc1ccc(Cl)cc1[N+](=O)[O-]
inactive: [4] 96 % of control | [14] 97 % of control and 92 % of control | dose: 100.0 mg/kg/injection, schedule: Q04DX002 (ip), vehicle: saline with Tween-80 98 % of control and 91 % of control | dose: 100.0 mg/kg/injection, schedule: Q04DX003 (ip), vehicle: saline with Tween-80 93 % of control | [5] 90 % of control | [15] 87 % of control | dose: 200.0 mg/kg/injection, schedule: Q04DX002 (ip), vehicle: saline with Tween-80 94 % of control and 98 % of control | dose: 200.0 mg/kg/injection, schedule: Q04DX003 (ip), vehicle: saline with Tween-80 97 % of control | [6] 87 % of control | dose: 400.0 mg/kg/injection, schedule: Q04DX002 (ip), vehicle: saline with Tween-80 93 % of control and 91 % of control | dose: 400.0 mg/kg/injection, schedule: Q04DX003 (ip), vehicle: saline with Tween-80 95 % of control

CCOC(=O)c1cccnc1N(C(=O)c1ccccc1)C(=O)c1ccccc1
inactive: [7] 95 % of control | [8] 95 % of control | dose: 400.0 mg/kg/injection, schedule: Q04DX002 (ip), vehicle: Klucel (hydroxypropylcellulose) (HPC) 89 % of control
